In patent publication US20240166646A1, “1H-PYRROLO[2,3-B]PYRIDINE DERIVATIVES AS BCL-2 INHIBITORS FOR THE TREATMENT OF NEOPLASTIC AND AUTOIMMUNE DISEASES” (Newave Pharmaceutical Inc., priority 2020, published 2024):
pIC50: −log10 of the molar value. Structures can show the parent of a compound that is named as a salt.

Key:
[1] = tested on: BCL-2-dependent acute lymphoblastic leukemia (ALL) cell line RS4; 11 with G101V mutation; test: In vitro anti-proliferation assay (ATPlite) in RS4; 11 with G101V mutation; assay type: cell-based; conditions: about 72 hours incubation, medium with 5% FBS or 10% normal human serum, ATPlite luminescence
Protocol: Cell antiproliferation was assayed by PerkinElmer ATPlite™ Luminescence Assay System. Briefly, the various test cancer cell lines were plated at a density of about 1×10^4 cells per well in Costar 96-well plates, and were incubated with different concentrations of compounds for about 72 hours in medium supplemented with 5% FBS or 10% normal human serum (NHS). One lyophilized substrate solution vial was then reconstituted by adding 5 mL of substrate buffer solution, and was agitated gently until the solution was homogeneous. About 50 μL of mammalian cell lysis solution was added to 100 μL of cell suspension per well of a microplate, and the plate was shaken for about five minutes in an orbital shaker at ˜700 rpm. This procedure was used to lyse the cells and to stabilize the ATP. Next, 50 μL substrate solution was added to the wells and microplate was shaken for five minutes in an orbital shaker at ˜700 rpm. Finally, the luminescence was measured by a PerkinElmer TopCount® Microplate Scintillation Counter. Such assays, carried out with a range of doses of test compounds, allowed the determination of the cellular anti-antiproliferative IC50 of the compounds of the present invention.

Bcl-2 = Bcl-2 (Homo sapiens (Human), UniProt P10415); test: Bcl-2 competition binding (fluorescence polarization) assay; conditions: fluorescein labeled BH3 peptide 15 nM, Bcl-2 protein 30 nM, 3 hours of incubation at room temperature
Summary of the method: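 Fluorescence polarization competition of 15 nM labeled 23-mer BH3 peptide with 30 nM purified Bcl-2, in 20 mM Hepes pH 7.0, 50 mM KCl, 5 mM MgCl2, 20 mM Na2MoO4, 0.1 mg/ml bovine gamma globulin, 0.01% NP40. Compounds 20 μM to 2 nM final; mP read after 3 h at room temperature, background-subtracted. IC50 from sigmoidal dose-response fit.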

Chain of Bcl-2 (P10415 whole entry): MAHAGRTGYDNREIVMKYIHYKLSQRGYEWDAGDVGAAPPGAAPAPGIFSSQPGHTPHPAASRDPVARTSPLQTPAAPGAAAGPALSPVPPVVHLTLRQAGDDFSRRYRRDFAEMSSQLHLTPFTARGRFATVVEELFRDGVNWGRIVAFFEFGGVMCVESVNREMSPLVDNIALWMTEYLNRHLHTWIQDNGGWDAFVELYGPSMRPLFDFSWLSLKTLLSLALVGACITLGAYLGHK

Row | Structure (SMILES) | pIC50 [1] | pIC50 (Bcl-2) | pIC50 ([1]; RS4-11)
1 | CO[C@]1(C)CC[C@H](CNc2ccc(S(=O)(=O)NC(=O)c3ccc(N4CCC5(CC4)CC(N4CCC[C@H]4c4ccccc4C(C)C)C5)cc3N3c4cc5cc[nH]c5nc4O[C@@H]4COC[C@H]43)cc2[N+](=O)[O-])CC1 [Example 37, 4-(2-((S)-2-(2-isopropylphenyl)pyrrolidin-1-yl)-7-azaspiro[3.5]nonan-7-yl)-N-((4-((((1s,4s)-4-methoxy-4-methylcyclohexyl)methyl)amino)-3-nitrophenyl)sulfonyl)-2-((5aR,8aS)-5a,6,8,8a-tetrahydrofuro[3,4-b]pyrrolo[3′,2′:5,6]pyrido[3,2-e][1,4]oxazin-5(1H)-yl)benzamide hydrochloride] | 7.82 | 9.45 | –
2 | Cc1ccccc1[C@@H]1CCCN1C1CC2(CCN(c3ccc(C(=O)NS(=O)(=O)c4ccc(NCC5(F)CCOCC5)c([N+](=O)[O-])c4)c(N4c5cc6cc[nH]c6nc5O[C@@H]5COC[C@H]54)c3)CC2)C1 [Example 38, N-((4-(((4-fluorotetrahydro-2H-pyran-4-yl)methyl)amino)-3-nitrophenyl)sulfonyl)-2-((5aR,8aS)-5a,6,8,8a-tetrahydrofuro[3,4-b]pyrrolo[3′,2′:5,6]pyrido[3,2-e][1,4]oxazin-5(1H)-yl)-4-(2-((S)-2-(o-tolyl)pyrrolidin-1-yl)-7-azaspiro[3.5]nonan-7-yl)benzamide] | – | 9.69 | 7.87
3 | Cc1ccccc1[C@@H]1CCCN1C1CC2(CCN(c3ccc(C(=O)NS(=O)(=O)c4ccc(NC[C@H]5COCCO5)c([N+](=O)[O-])c4)c(N4c5cc6cc[nH]c6nc5O[C@@H]5COC[C@H]54)c3)CC2)C1 [Example 39, N-((4-((((S)-1,4-dioxan-2-yl)methyl)amino)-3-nitrophenyl)sulfonyl)-2-((5aR,8aS)-5a,6,8,8a-tetrahydrofuro[3,4-b]pyrrolo[3′,2′:5,6]pyrido[3,2-e][1,4]oxazin-5(1H)-yl)-4-(2-((S)-2-(o-tolyl)pyrrolidin-1-yl)-7-azaspiro[3.5]nonan-7-yl)benzamide] | – | 9.72 | 7.31
4 | Cc1ccccc1[C@@H]1CCCN1C1CC2(CCN(c3ccc(C(=O)NS(=O)(=O)c4ccc(NCC5CCC(C)(O)CC5)c([N+](=O)[O-])c4)c(N4c5cc6cc[nH]c6nc5O[C@@H]5COC[C@H]54)c3)CC2)C1 (stereo partly drawn) [Example 40, N-((4-((((1s,4s)-4-hydroxy-4-methylcyclohexyl)methyl)amino)-3-nitrophenyl)sulfonyl)-2-((5aR,8aS)-5a,6,8,8a-tetrahydrofuro[3,4-b]pyrrolo[3′,2′:5,6]pyrido[3,2-e][1,4]oxazin-5(1H)-yl)-4-(2-((S)-2-(o-tolyl)pyrrolidin-1-yl)-7-azaspiro[3.5]nonan-7-yl)benzamide] | 7.46 | 9.70 | –
5 | Cc1ccccc1[C@@H]1CCCN1C1CC2(CCN(c3ccc(C(=O)NS(=O)(=O)c4ccc(NCC5CCC(C)(O)CC5)c([N+](=O)[O-])c4)c(N4c5cc6cc[nH]c6nc5O[C@@H]5COC[C@H]54)c3)CC2)C1 (stereo partly drawn) [Example 41, N-((4-((((1r,4r)-4-hydroxy-4-methylcyclohexyl)methyl)amino)-3-nitrophenyl)sulfonyl)-2-((5aR,8aS)-5a,6,8,8a-tetrahydrofuro[3,4-b]pyrrolo[3′,2′:5,6]pyrido[3,2-e][1,4]oxazin-5(1H)-yl)-4-(2-((S)-2-(o-tolyl)pyrrolidin-1-yl)-7-azaspiro[3.5]nonan-7-yl)benzamide] | 7.83 | 9.74 | –
6 | CC(C)Oc1ccccc1[C@@H]1CCCN1C1CC2(CCN(c3ccc(C(=O)NS(=O)(=O)c4ccc(NCC5(F)CCOCC5)c([N+](=O)[O-])c4)c(N4c5cc6cc[nH]c6nc5O[C@@H]5COC[C@H]54)c3)CC2)C1 [Example 42, N-((4-(((4-fluorotetrahydro-2H-pyran-4-yl)methyl)amino)-3-nitrophenyl)sulfonyl)-4-(2-((S)-2-(2-isopropoxyphenyl)pyrrolidin-1-yl)-7-azaspiro[3.5]nonan-7-yl)-2-((5aR,8aS)-5a,6,8,8a-tetrahydrofuro[3,4-b]pyrrolo[3′,2′:5,6]pyrido[3,2-e][1,4]oxazin-5(1H)-yl)benzamide] | – | 9.66 | 7.53
7 | CC(C)Oc1ccccc1[C@@H]1CCCN1C1CC2(CCN(c3ccc(C(=O)NS(=O)(=O)c4ccc(NC[C@H]5COCCO5)c([N+](=O)[O-])c4)c(N4c5cc6cc[nH]c6nc5O[C@@H]5COC[C@H]54)c3)CC2)C1 [Example 43, N-((4-((((S)-1,4-dioxan-2-yl)methyl)amino)-3-nitrophenyl)sulfonyl)-4-(2-((S)-2-(2-isopropoxyphenyl)pyrrolidin-1-yl)-7-azaspiro[3.5]nonan-7-yl)-2-((5aR,8aS)-5a,6,8,8a-tetrahydrofuro[3,4-b]pyrrolo[3′,2′:5,6]pyrido[3,2-e][1,4]oxazin-5(1H)-yl)benzamide] | – | 9.55 | 7.06
8 | CC(C)Oc1ccccc1[C@@H]1CCCN1C1CC2(CCN(c3ccc(C(=O)NS(=O)(=O)c4ccc(NCC5CCC(C)(O)CC5)c([N+](=O)[O-])c4)c(N4c5cc6cc[nH]c6nc5O[C@@H]5COC[C@H]54)c3)CC2)C1 (stereo partly drawn) [Example 44, N-((4-((((1s,4s)-4-hydroxy-4-methylcyclohexyl)methyl)amino)-3-nitrophenyl)sulfonyl)-4-(2-((S)-2-(2-isopropoxyphenyl)pyrrolidin-1-yl)-7-azaspiro[3.5]nonan-7-yl)-2-((5aR,8aS)-5a,6,8,8a-tetrahydrofuro[3,4-b]pyrrolo[3′,2′:5,6]pyrido[3,2-e][1,4]oxazin-5(1H)-yl)benzamide] | 7.01 | 9.75 | –
9 | CC(C)Oc1ccccc1[C@@H]1CCCN1C1CC2(CCN(c3ccc(C(=O)NS(=O)(=O)c4ccc(NCC5CCC(C)(O)CC5)c([N+](=O)[O-])c4)c(N4c5cc6cc[nH]c6nc5O[C@@H]5COC[C@H]54)c3)CC2)C1 (stereo partly drawn) [Example 45, N-((4-((((1r,4r)-4-hydroxy-4-methylcyclohexyl)methyl)amino)-3-nitrophenyl)sulfonyl)-4-(2-((S)-2-(2-isopropoxyphenyl)pyrrolidin-1-yl)-7-azaspiro[3.5]nonan-7-yl)-2-((5aR,8aS)-5a,6,8,8a-tetrahydrofuro[3,4-b]pyrrolo[3′,2′:5,6]pyrido[3,2-e][1,4]oxazin-5(1H)-yl)benzamide] | 7.62 | 9.70 | –
10 | CC(C)(C)c1ccccc1[C@@H]1CCCN1C1CC2(CCN(c3ccc(C(=O)NS(=O)(=O)c4ccc(NCC5CCOCC5)c([N+](=O)[O-])c4)c(N4c5cc6cc[nH]c6nc5O[C@@H]5COC[C@H]54)c3)CC2)C1 [Example 46, 4-{2-[(2S)-2-(2-tert-butylphenyl)pyrrolidin-1-yl]-7-azaspiro[3.5]nonan-7-yl}-2-[(11R,15S)-13,16-dioxa-2,4,10-triazatetracyclo[7.7.0.0^{3,7}.0^{11,15}]hexadeca-1(9),2,5,7-tetraen-10-yl]-N-{3-nitro-4-[(oxan-4-ylmethyl)amino]benzenesulfonyl}benzamide] | 7.24 | 9.40 | –
11 | CC#Cc1ccccc1[C@@H]1CCCN1C1CC2(CCN(c3ccc(C(=O)NS(=O)(=O)c4ccc(NCC5CCOCC5)c([N+](=O)[O-])c4)c(N4c5cc6cc[nH]c6nc5O[C@@H]5COC[C@H]54)c3)CC2)C1 [Example 47, N-((3-nitro-4-(((tetrahydro-2H-pyran-4-yl)methyl)amino)phenyl)sulfonyl)-4-(2-((S)-2-(2-(prop-1-yn-1-yl)phenyl)pyrrolidin-1-yl)-7-azaspiro[3.5]nonan-7-yl)-2-((5aR,8aS)-5a,6,8,8a-tetrahydrofuro[3,4-b]pyrrolo[3′,2′:5,6]pyrido[3,2-e][1,4]oxazin-5(1H)-yl)benzamide] | – | 9.51 | 6.54
